In patent US9549921B2, “Heterocyclic compounds and methods of use thereof for the treatment of hepatitis C” (priority 2014, dated 2017):
pIC50: −log10 of the molar value. Read-outs that look alike come from different tables or passages of the source.

Columns and labels:
HCV replicon genotype 1a = test: HCV replicon assay, genotype 1a (cell ELISA for NS3/4A); format: cell-based, hepatitis C virus; details: for IC50: Hepatitis C virus, 96 h, read-out: 1a IC50 (nM), HCV genotype 1a replicon cells, 96 hours incubation, NS3/4A ELISA readout, % of DMSO control; for pIC50: read-out: 1a IC50, HCV genotype 1a replicon cells, 96 hours incubation, NS3/4A ELISA readout, % of DMSO control
Protocol: (§1) The HCV NS5B inhibitory activity of the present compounds may be tested using assays known in the art. The HCV NS5B polymerase inhibitors described herein have activities in a genotype 1b replicon assay as described in the Examples. The assay is performed by incubating a replicon harboring cell-line in the presence of inhibitor for a set period of time and measuring the effect of the inhibitor on HCV replicon replication either directly by quantifying replicon RNA level, or indirectly by measuring enzymatic activity of a co-encoded reporter enzyme such as luciferase or β-lactamase. By performing a series of such measurements at different inhibitor concentrations, the effective inhibitory concentration of the inhibitor (EC50 or EC90) is determined. See Jan M. Vrolijk et al., A replicons-based bioassay for the measurement of interferons in patients with chronic hepatitis C, 110 J. VIROLOGICAL METHODS 201 (2003). Such assays may also be run in an automated format for high through-put screening. See Paul Zuck et al., A cell-based β-lactamase reporter gene assay for the identification of inhibitors of hepatitis C virus replication, 334 ANALYTICAL BIOCHEMISTRY 344 (2004).
(§2) Measurement of inhibition by compounds was performed using the HCV replicon system. Several different replicons encoding different HCV genotypes or mutations were used. In addition, potency measurements were made using different formats of the replicon assay, including different ways of measurements and different plating formats. See Jan M. Vrolijk et al., A replicons-based bioassay for the measurement of interferons in patients with chronic hepatitis C, 110 J. VIROLOGICAL METHODS 201 (2003); Steven S. Carroll et al., Inhibition of Hepatitis C Virus RNA Replication by 2′-Modified Nucleoside Analogs, 278(14) J. BIOLOGICAL CHEMISTRY 11979 (2003). However, the underlying principles are common to all of these determinations, and are outlined below.
(§3) Stable neomycin phosphotransferase encoding replicons-harboring cell lines were used, so all cell lines were maintained under G418 selection prior to the assay. Potency was deteremined using a cell ELISA assay with an antibody to the replicons encoded NS3/4a protease. See Caterina Trozzi et al., In Vitro Selection and Characterization of Hepatitis C Virus Serine Protease Variants Resistant to an Active-Site Peptide Inhibitor, 77(6) J. Virol. 3669 (2003). To initiate an assay, replicon cells were plated in the presence of a dilution series of test compound in the absence of G418. Typically, the assays were performed in a 96-well plate formate for manual operation, or a 384-well plate format for automated assay. Replicon cells and compound were incubated for 96 hours. At the end of the assay, cells were washed free of media and compound, and the cells were then lysed. RNA was quantified indirectly through detection of replicon-encoded NS3/4A protein levels, through an ELISA-based assay with an antibody specific for NS3/4A. IC50 determinations were calculated as a percentage of a DMSO control by fitting the data to a four-parameter fit function and the data obtained is provided in the table below.
(§4) Data for selected compounds of the present invention was obtained for genotypes 1a and 1b using this method and is provided in the table below: […]

HCV replicon genotype 1b = test: HCV replicon assay, genotype 1b (cell ELISA for NS3/4A); format: cell-based, hepatitis C virus; details: for IC50: Hepatitis C virus, 96 h, read-out: 1b IC50 (nM), HCV genotype 1b replicon cells, 96 hours incubation, NS3/4A ELISA readout, % of DMSO control; for pIC50: read-out: 1b IC50, HCV genotype 1b replicon cells, 96 hours incubation, NS3/4A ELISA readout, % of DMSO control
Protocol: as §1, §2, §3, §4

| SMILES | IC50 (HCV replicon genotype 1a) [nM] | IC50 (HCV replicon genotype 1b) [nM] | pIC50 (HCV replicon genotype 1a) | pIC50 (HCV replicon genotype 1b) |
| --- | --- | --- | --- | --- |
| CNC(=O)c1c(-c2ccc(F)cc2)oc2cc(N(C)S(C)(=O)=O)c([C@@H]3CCCN(S(=O)(=O)c4cc5cccc(F)c5[nH]4)C3)cc12 [Example 2, (S)-5-(1-((7-fluoro-1H-indol-2-yl)sulfonyl)piperidin-3-yl)-2-(4-fluorophenyl)-N-methyl-6-(N-methylmethylsulfonamido)benzofuran-3-carboxamide] | 84.1 | 41 | – | – |
| CNC(=O)c1c(-c2ccc(F)cc2)oc2cc(N(C)S(C)(=O)=O)c([C@@H]3CCCN(S(=O)(=O)c4ccccc4F)C3)cc12 [Example 119, 2-(4-fluorophenyl)-5-{(3S)-1-[(2-fluorophenyl)sulfonyl]piperidin-3-yl}-N-methyl-6-[methyl(methylsulfonyl)amino]-1-benzofuran-3-carboxamide] | 24.5 | 10.9 | – | – |
| CNC(=O)c1c(-c2ccc(F)cc2)oc2cc(N(C)S(C)(=O)=O)c([C@@H]3CCCN(C(=O)c4ccc(F)cc4)C3)cc12 (single isomer, unassigned) [Example 20, 5-(1-(4-fluorobenzoyl)piperidin-3-yl)-2-(4-fluorophenyl)-N-methyl-6-(N-methylmethylsulfonamido)benzofuran-3-carboxamide] | – | – | 7.32 | 7.33 |
| CCn1c(C(=O)N2CCC[C@@H](c3cc4c(C(=O)NC)c(-c5ccc(F)cc5)oc4cc3N(C)S(C)(=O)=O)C2)cc2c(F)cccc21 [Example 33, (S)-5-(1-(1-ethyl-4-fluoro-1H-indole-2-carbonyl)piperidin-3-yl)-2-(4-fluorophenyl)-N-methyl-6-(N-methylmethylsulfonamido)benzofuran-3-carboxamide] | 130 | 196 | – | – |
| CNC(=O)c1c(-c2ccc(F)cc2)oc2cc(N(C)S(C)(=O)=O)c([C@H]3CCCN(S(=O)(=O)c4cn(CC(C)C)nc4C)C3)cc12 [Example 143, 2-(4-fluorophenyl)-N-methyl-5-[(3R)-1-{[3-methyl-1-(2-methylpropyl)-1H-pyrazol-4-yl]sulfonyl}piperidin-3-yl]-6-[methyl(methylsulfonyl)amino]-1-benzofuran-3-carboxamide] | 315 | 214 | – | – |
| CNC(=O)c1c(-c2ccc(F)cc2)oc2cc(N(C)S(C)(=O)=O)c([C@H]3CCCN(C(=O)c4cn5c(Cl)cccc5n4)C3)cc12 [Example 107, 5-{(3R)-1-[(5-chloroimidazo[1,2-a]pyridin-2-yl)carbonyl]piperidin-3-yl}-2-(4-fluorophenyl)-N-methyl-6-[methyl(methylsulfonyl)amino]-1-benzofuran-3-carboxamide] | 389 | 116 | – | – |
| CNC(=O)c1c(-c2ccc(F)cc2)oc2cc(N(C)S(C)(=O)=O)c([C@H]3CCCN(S(=O)(=O)Cc4cccnc4)C3)cc12 [Example 140, 2-(4-fluorophenyl)-N-methyl-6-[methyl(methylsulfonyl)amino]-5-{(3R)-1-[(pyridin-3-ylmethyl)sulfonyl]piperidin-3-yl}-1-benzofuran-3-carboxamide] | 20.5 | 16.5 | – | – |
| CNC(=O)c1c(-c2ccc(F)cc2)oc2cc(N(C)S(C)(=O)=O)c([C@H]3CCCN(C(=O)c4cc5cccc(F)c5o4)C3)cc12 [Example 91, (R)-5-(1-(7-fluorobenzofuran-2-carbonyl)piperidin-3-yl)-2-(4-fluorophenyl)-N-methyl-6-(N-methylmethylsulfonamido)benzofuran-3-carboxamide] | 180 | 62.6 | – | – |
| CNC(=O)c1c(-c2ccc(F)cc2)oc2cc(N(C)S(C)(=O)=O)c([C@@H]3CCCN(C(=O)C4CC4c4ccccn4)C3)cc12 (stereo partly drawn) [Example 78, 2-(4-fluorophenyl)-N-methyl-6-[methyl(methylsulfonyl)amino]-5-{1-[(2-pyridin-2-ylcyclopropyl)carbonyl]piperidin-3-yl}-1-benzofuran-3-carboxamide] | – | – | 6.61 | 7.09 |
